{"source": "patent US20050026949A1", "about": "“Methods of therapeutic treatment using amounts of retinoids without regard to body weight” (Allergan, Inc., priority 2003, published 2005)", "type_in_all_cases": "in vivo, human", "key": {"[1]": {"system": "patients with moderate to very severe plaque psoriasis", "test": "Open-label extension study of oral tazarotene (Example 4)", "experimental": "Two multicenter, double-blind, placebo-controlled studies ware conducted to evaluate the efficacy and safety of oral tazarotene (4.5 mg once daily) in patients with moderate to very severe plaque psoriasis. […] Efficacy evaluations include overall lesional assessment (OLA), percent body surface area involvement, global response to treatment, plaque elevation, scaling, and erythema. OLA is graded on a 6-point scale (0=none, 1=minimal, 2=mild, 3=moderate, 4=severe, 5=very severe)."}, "[2]": {"system": "patients treated for acne", "test": "Studies of orally administered tazarotene for acne: adverse events (Table 2)", "details": "combined data from Studies 1 and 2 (N = 223)", "experimental": "Studies are conducted on orally administered tazarotene for the treatment of acne. Adverse events (side effects) are monitored."}, "[3]": {"system": "patients with severe nodulocystic acne", "test": "Multicenter double-blind placebo-controlled study of oral tazarotene (Example 10)", "details": "for patients withdrawing due to lack of efficacy: placebo 17%; for reduction in mean facial papule or pastule count / reduction in mean facial non-inflammatory lesion count / reduction in mean total facial nodulocystic lesion count: end of treatment; for reduction in mean facial papule or pastule count: placebo 31%; for reduction in mean facial non-inflammatory lesion count: placebo 45%; for reduction in mean total facial nodulocystic lesion count: placebo 55%", "text": "A multicenter, double-blind, randomized, placebo-controlled parallel-group study is undertaken to determine the efficacy of orally administered tazarotene in treating severe nodulocystic acne.\nIn addition, washout periods for other medications for this study are: 1 week for vitamin A supplements >5000 IU; 2 weeks for topical anti-acne medications (e.g., retinoids, azelaic acid, benzoyl peroxide); 2 weeks for topical or systemic antibiotic therapy that may alter the course of acne; and 6 months for systemic retinoids.\nPatients are randomized to receive placebo or oral tazarotene (0.75, 1.5, 3, or 6 mg), in a 1:1:1:1:1 ratio once daily for 24 weeks. After this, the patients are followed without treatment for an additional 12 weeks. Patients discontinuing from the treatment period due to adverse effects or lack of efficacy are eligible for entry into the post-treatment phase.\nIn the study, overall acne severity is rated as: none (no inflammatory acne lesions); mild (few to several papules or pustules, no nodulocystic lesions); moderate (several to many papules or pustules, few to several nodulocystic lesions); and severe (numerous or extensive papules or pustules, many, for example, at least about 5 or at least about 10, nodulocystic lesions).\nTreatment success is defined as at least moderate (about 50%) improvement on the following 7-point global response scale: • 0=completely cleared • 1=almost cleared (about 90% improvement) • 2=marked response (about 75% improvement) • 3=moderate response (about 50% improvement) • 4=slight response (about 25% improvement) • 5=condition unchanged • 6=condition worsened\nIn this study, facial nodulocystic lesion count includes lesions greater than 5 mm in size. Facial papular/pustular lesion count includes lesions less than or equal to 5 mm in size. Facial non-inflammatory lesion count includes open and closed comedones.\nSebum output is assessed every 4 weeks at selected centers using the Sebutape® patches, sold by Cuderm Corporation. Urinalysis, chemistry, and hematology values are monitored. Bone formation and resorption assessments (serum bone alkaline phosphatase and serum amino terminal telopeptides, respectively) at selected centers are monitored.\nBone mineral density of spine and proximal femur at selected centers is monitored. Ligament calcification or osteophyte formation (lateral X-ray of the cervical and thoracic spine, and ankle calcaneous) is monitored. Epiphyseal growth plate closure (internal oblique X-ray of the ankle in patients less than or equal to 21 years old) is monitored."}, "[4]": {"details": "4.5 mg once daily, 12-week extension treatment period, both groups"}, "[5]": {"details": "4.5 mg once daily, extension study"}, "[6]": {"details": "0.75 to 6 mg once daily for 24 weeks"}}, "data": [{"smiles": "CCOC(=O)c1ccc(C#Cc2ccc3c(c2)C(C)(C)CCS3)nc1", "note": "[tazarotene]", "values": [{"measurement": "incidence of arthralgia", "setting": "[1]; [4]", "result": 20, "unit": "%"}, {"measurement": "incidence of cheilitis", "setting": "[1]; [4]", "result": 70, "unit": "%"}, {"measurement": "incidence of dry skin", "setting": "[1]; [4]", "result": 25, "unit": "%"}, {"measurement": "incidence of hypertriglyceridemia", "setting": "[1]; [4]", "result": 6, "unit": "%"}, {"measurement": "patients with clinical success (2-grade reduction in OLA)", "setting": "[1]; 4.5 mg once daily, end of the 12-week treatment period", "result": 28, "unit": "%"}, {"measurement": "changes in liver function test values or cholesterol levels", "setting": "[1]; [5]", "result": "no clinically significant changes"}, {"measurement": "serious adverse events", "setting": "[1]; [5]", "result": "no serious adverse events considered related to the study treatment"}, {"measurement": "patients with clinical success (2-grade reduction in OLA)", "setting": "[1]; end of the 12-week post-treatment period", "result": 16, "unit": "%"}, {"measurement": "Cheilitis", "setting": "[2]", "result": "134 (60.1) NUMBER OF (%) OF PATIENTS"}, {"measurement": "Conjunctivitis", "setting": "[2]", "result": "0 (0.0) NUMBER OF (%) OF PATIENTS"}, {"measurement": "Desquamation central face/Desquamation", "setting": "[2]", "result": "1 (0.4) NUMBER OF (%) OF PATIENTS"}, {"measurement": "Dry Skin", "setting": "[2]", "result": "79 (35.4) NUMBER OF (%) OF PATIENTS"}, {"measurement": "Dry nose", "setting": "[2]", "result": "7 (3.1) NUMBER OF (%) OF PATIENTS"}, {"measurement": "Epistaxis", "setting": "[2]", "result": "6 (2.7) NUMBER OF (%) OF PATIENTS"}, {"measurement": "Fingertip peeling/Desquamation", "setting": "[2]", "result": "1 (0.4) NUMBER OF (%) OF PATIENTS"}, {"measurement": "Headache", "setting": "[2]", "result": "26 (11.7) NUMBER OF (%) OF PATIENTS"}, {"measurement": "Irritation of eyes", "setting": "[2]", "result": "0 (0.0) NUMBER OF (%) OF PATIENTS"}, {"measurement": "Joint pain/Arthralgia", "setting": "[2]", "result": "18 (8.1) NUMBER OF (%) OF PATIENTS"}, {"measurement": "Peeling/Desquamation", "setting": "[2]", "result": "1 (0.4) NUMBER OF (%) OF PATIENTS"}, {"measurement": "Pruritus", "setting": "[2]", "result": "10 (4.5) NUMBER OF (%) OF PATIENTS"}, {"measurement": "Rash-dermatitis/Rash", "setting": "[2]", "result": "7 (3.1) NUMBER OF (%) OF PATIENTS"}, {"measurement": "Red Scaly face/Desquamation", "setting": "[2]", "result": "1 (0.4) NUMBER OF (%) OF PATIENTS"}, {"measurement": "Skin fragility/Skin disorder", "setting": "[2]", "result": "1 (0.4) NUMBER OF (%) OF PATIENTS"}, {"measurement": "patients withdrawing due to adverse events in the treatment period", "setting": "[3]; 0.75 mg group (2/35)", "result": 6, "unit": "%"}, {"measurement": "patients withdrawing due to lack of efficacy", "setting": "[3]; 0.75 mg group (7/35)", "result": 20, "unit": "%"}, {"measurement": "patients with either no acne or mild acne", "setting": "[3]; 0.75 mg group, end of the treatment phase, placebo 19%", "result": 34, "unit": "%"}, {"measurement": "reduction in mean facial papule or pastule count", "setting": "[3]; 0.75 mg group", "result": 37, "unit": "%"}, {"measurement": "reduction in mean facial non-inflammatory lesion count", "setting": "[3]; 0.75 mg group", "result": 46, "unit": "%"}, {"measurement": "reduction in mean total facial nodulocystic lesion count", "setting": "[3]; 0.75 mg group", "result": 66, "unit": "%"}, {"measurement": "mean total facial nodulocystic lesion count at the end of the treatment period", "setting": "[3]; 0.75 mg group, from 12.2 at baseline", "result": 4.2}, {"measurement": "mean facial papule or pastule count at the end of the treatment period", "setting": "[3]; 0.75 mg group, from 32.3 at baseline", "result": 20.3}, {"measurement": "mean facial non-inflammatory lesion count at the end of the treatment period", "setting": "[3]; 0.75 mg group, from 56.3 at baseline", "result": 30.3}, {"measurement": "patients withdrawing due to adverse events in the treatment period", "setting": "[3]; 1.5 mg group (0/37)", "result": 0, "unit": "%"}, {"measurement": "patients withdrawing due to lack of efficacy", "setting": "[3]; 1.5 mg group (2/37)", "result": 5, "unit": "%"}, {"measurement": "reduction in mean facial papule or pastule count", "setting": "[3]; 1.5 mg group", "result": 54, "unit": "%"}, {"measurement": "reduction in mean facial non-inflammatory lesion count", "setting": "[3]; 1.5 mg group", "result": 70, "unit": "%"}, {"measurement": "reduction in mean total facial nodulocystic lesion count", "setting": "[3]; 1.5 mg group", "result": 73, "unit": "%"}, {"measurement": "mean total facial nodulocystic lesion count at the end of the treatment period", "setting": "[3]; 1.5 mg group, from 11.8 at baseline", "result": 3.2}, {"measurement": "mean facial papule or pastule count at the end of the treatment period", "setting": "[3]; 1.5 mg group, from 29.1 at baseline", "result": 13.3}, {"measurement": "mean facial non-inflammatory lesion count at the end of the treatment period", "setting": "[3]; 1.5 mg group, from 59.2 at baseline", "result": 17.8}, {"measurement": "incidence of treatment success (≧50% global improvement) vs placebo", "setting": "[3]; 3 mg and 6 mg, week 24 and throughout the post-treatment phase (p≦0.05)", "result": "significantly higher incidence of treatment success"}, {"measurement": "patients withdrawing due to lack of efficacy", "setting": "[3]; 3 mg group (0/37)", "result": 0, "unit": "%"}, {"measurement": "patients withdrawing due to adverse events in the treatment period", "setting": "[3]; 3 mg group (2/37)", "result": 5, "unit": "%"}, {"measurement": "patients with either no acne or mild acne", "setting": "[3]; 3 mg group, end of the post-treatment phase", "result": 43, "unit": "%"}, {"measurement": "reduction in mean facial papule or pastule count", "setting": "[3]; 3 mg group", "result": 61, "unit": "%"}, {"measurement": "reduction in mean facial non-inflammatory lesion count", "setting": "[3]; 3 mg group", "result": 62, "unit": "%"}, {"measurement": "reduction in mean total facial nodulocystic lesion count", "setting": "[3]; 3 mg group", "result": 79, "unit": "%"}, {"measurement": "mean total facial nodulocystic lesion count at the end of the treatment period", "setting": "[3]; 3 mg group, from 10.8 at baseline", "result": 2.3}, {"measurement": "mean facial papule or pastule count at the end of the treatment period", "setting": "[3]; 3 mg group, from 25.4 at baseline", "result": 10.0}, {"measurement": "mean facial non-inflammatory lesion count at the end of the treatment period", "setting": "[3]; 3 mg group, from 56.1 at baseline", "result": 21.3}, {"measurement": "median time to initial complete clearing of facial nodulocystic lesions", "setting": "[3]; 3 mg group, placebo 24 weeks (p=0.017)", "result": 16, "unit": "weeks"}, {"measurement": "patients withdrawing due to adverse events in the treatment period", "setting": "[3]; 6 mg group (1/36)", "result": 3, "unit": "%"}, {"measurement": "patients withdrawing due to lack of efficacy", "setting": "[3]; 6 mg group (2/36)", "result": 6, "unit": "%"}, {"measurement": "patients with either no acne or mild acne", "setting": "[3]; 6 mg group, end of the post-treatment phase", "result": 53, "unit": "%"}, {"measurement": "reduction in mean facial papule or pastule count", "setting": "[3]; 6 mg group", "result": 55, "unit": "%"}, {"measurement": "reduction in mean facial non-inflammatory lesion count", "setting": "[3]; 6 mg group", "result": 72, "unit": "%"}, {"measurement": "reduction in mean total facial nodulocystic lesion count", "setting": "[3]; 6 mg group", "result": 86, "unit": "%"}, {"measurement": "mean total facial nodulocystic lesion count at the end of the treatment period", "setting": "[3]; 6 mg group, from 11.6 at baseline", "result": 1.6}, {"measurement": "mean facial papule or pastule count at the end of the treatment period", "setting": "[3]; 6 mg group, from 24.6 at baseline", "result": 11.1}, {"measurement": "mean facial non-inflammatory lesion count at the end of the treatment period", "setting": "[3]; 6 mg group, from 47.7 at baseline", "result": 13.5}, {"measurement": "median time to initial complete clearing of facial nodulocystic lesions", "setting": "[3]; 6 mg group, placebo 24 weeks (p=0.081)", "result": 16, "unit": "weeks"}, {"measurement": "overall acne severity", "setting": "[3]; 6 mg, from week 16 until the end of the post-treatment phase (p≦0.01)", "result": "reduces the overall acne severity significantly more than placebo"}, {"measurement": "bone formation and resorption (serum bone alkaline phosphatase, serum amino terminal telopeptides)", "setting": "[3]; [6]", "result": "do not appear to be altered"}, {"measurement": "changes in urinalysis, chemistry, or hematology measures (including liver function tests, triglycerides, total cholesterol, HDL cholesterol)", "setting": "[3]; [6]", "result": "None of the treatment groups show any consistent clinically significant changes"}, {"measurement": "ligament calcification, osteophyte formation, or changes in bone density", "setting": "[3]; [6]", "result": "None of the treatment groups show any clinically significant ligament calcification, osteophyte formation, or changes in bone density"}, {"measurement": "percentage of patients with at least a 90% reduction in facial nodulocystic lesion count vs placebo", "setting": "[3]; 1.5, 3, and 6 mg groups, week 24", "result": "significantly greater"}, {"measurement": "sebum secretion (Sebutape method)", "setting": "[3]; oral tazarotene 0.75 to 6 mg vs placebo", "result": "does not substantially reduce sebum secretion relative to placebo"}, {"measurement": "patients with either no acne or mild acne", "setting": "[3]; three highest dose groups, end of the treatment phase, placebo 19%", "result": "More than 45%"}, {"measurement": "patients achieving treatment success", "setting": "[3]; three highest doses, by week 12", "result": "more than 70%"}, {"measurement": "patients achieving treatment success", "setting": "[3]; two highest doses, by week 24", "result": "more than 86%"}]}]}
